Entries after “also recorded” stand apart in the source; their conditions may differ.
How the values were obtained:
[1] = C11-BODIPY581/591 oxidation lipid peroxidation assay in liposomes; conditions: 10 mM AAPH, phospholipid liposomes, phosphate buffer, 40° C.
Procedure: To overcome the problem of spectral overlap using cis-parinaric acid, a fluorescence assay for lipid peroxidation using a lipophilic probe belonging to the BODIPY class of fluorescent dyes was used. C11-BODIPY^581/591 (4,4-difluoro-5(4-phenyl-1,3-butadienyl)-4-bora-3a,4a-diaza-s-indacene-3-propionic acid) fluorescence shifts from red to green upon oxidation. C11-BODIPY^581/591 (Molecular Probes, Eugene, Oreg., USA) stock solution concentrations were determined by measuring the absorption of C11-BODIPY^581/591 at 582 nm using a molar extinction coefficient of 140,000 mol^−1 cm^−1(R. P. Haugland, (1999) Handbook of Fluorescent Probes and Research Chemicals, Molecular Probes, Inc., Eugene, Oreg.). The lipid peroxidation inducer 2,2′-Azobis (2-amidino-propane dihydrochloride) (AAPH) and the antioxidant compound α-tocopherol were obtained from Sigma (St. Louis, Mo., USA). Phospholipid bilayers were prepared from 1-stearoyl-2-oleoyl-phosphatidylcholine (SOPC) and 1,2-dilinoleoyl-phosphatidylcholine (DLPC) and were purchased from Avanti® polar lipids, INC (Alabaster, Ala., USA).
Phosphotidylcholine (PC) liposomes were prepared as described before (Guey-Shuang et al. (1982) Lipids. 17, 403-413). Briefly, DLPC (25 mg) and SOPC (25 mg) were dissolved in chloroform and the solvent was removed by nitrogen evaporation (˜2 hours to give a thin film of PC in a round bottom flask. The lipid film was hydrated with 50 mL of 10 mM Tris-HCl (pH 7.4), 100 mM KCl, shaken and sonicated for 15 seconds. The liposomes obtained were filtered several times through 0.2 μM membrane filter.
C11 BODIPY^581/591 was incorporated into liposomes and oxidized by peroxyl radicals derived from the decomposition of AAPH in presence and absence of the compounds. […] Liposomes were pre-incubated for 10 min with 200 nM C11 BODIPY^581/591 to allow their incorporation into the lipid phase of the liposomes. After the addition of AAPH (10 mM) the decay of red fluorescence was followed at λ exc=570 nm, λ em=600 nm. Relative fluorescence units were normalized to 100% intensity. Results obtained were verified by repeating experiments N=3 independent experiments.

[2] = test system: CEM cells; test: Reactive oxygen species (ROS) assay, DCFH-DA, DEM-treated cells; assay type: cell-based, human; conditions: for protection against ROS production (DCF fluorescence): 5 mM DEM
From the text: Cellular ROS production can be monitored using 2′,7′-dichlorodihydrofluorescein diacetate (DCFH-DA) (LeBel et al. (1992) Chem. Res. Toxicol. 5, 227-231) (Molecular Probes, Eugene, Oreg., USA), a membrane permeable and oxidant-sensitive fluorescent dye. DCFH-DA is a non-fluorescent derivative of fluorescein that emits fluorescence after being oxidized by hydrogen peroxide and other ROS. The emitted fluorescence is directly proportional to the concentration of hydrogen peroxide. DCFH-DA is nonionic and nonpolar and is easily taken up by cells. Once inside the cell, DCFH-DA is hydrolyzed by cellular esterases to non-fluorescent DCFH which traps the dye in the cell. In the presence of ROS including hydrogen peroxide, DCFH is oxidized to the highly fluorescent compound dichlorofluorescein (DCF). The intracellular DCF fluorescence is used as an index of cellular ROS production.
Cellular oxidative stress was induced by pharmacological depletion of glutathione (GSH) using the chemical diethylmaleate (DEM). ROS production was assessed by monitoring DCF fluorescence. Leukemic CEM cells (ATCC®, catalogue number CRL-2264) were cultured in RPMI (GIBCO, Grand island, N.Y., USA) with 10% FCS, 2 mM glutamine (HyClone, South Logan, Utah, USA) and 1% penicillin-streptomycin mix antibiotics (Cellgro, Manassan, Va., USA) supplements. Cells were maintained in the log phase at a concentration of between 1×10^5 and 1×10^6 cells/mL. CEM cells (1×10^6 cell/mL) were plated (1 mL) in twelve well plate and treated with the invention compounds (final concentration 1 and 5 μM), and incubated for two hours at 37° C., 5% CO2. The compounds tested were prepared by first making stock solutions (2.5 mM) in dimethylsulfoxide (DMSO). Cells were treated with 5 mM DEM for 30 minutes and collected by centrifugation at 300×g for 3 min and then washed twice with Hanks' Balanced Salt Solution (HSSB) buffer (Sigma, St. Louis, Mo. USA). Cells were resuspended in HSSB buffer+10 mM glucose and incubated at 37° C. in the dark for 20 min with 10 μM DCFH-DA. Cells were collected by centrifugation at 300×g for 3 min and then washed twice with HSSB buffer. The samples were analyzed immediately by flow cytometry (Becton-Dickinson FACS Caliber), (Cell Quest software, BD Biosciences) using 488 nm excitation laser and FL1-H channel 538 nm emission filter. In each analysis, 10,000 events were recorded after cell debris were electronically gated out. Results obtained were verified by repeating experiments N=3 independent experiments. Authentic hydrogen peroxide was used as a positive control.

[3] = test system: CEM cells; test: Trypan blue cell viability assay, DEM-treated cells; assay type: cell-based, human
Procedure: Cell viability determined by trypan blue exclusion assay: This technique was used to assess the cytoprotective effects of the invention compounds in cultured cells pharmacologically treated to induce cell death by GSH depletion. DEM was used to deplete cellular GSH and induce oxidative stress. The viability of DEM-treated CEM cells was determined by their ability to exclude the dye trypan blue. Viable cells exclude trypan blue; whereas, non-viable cells take up the dye and stain blue. Briefly, CEM cells were grown in RPMI 1640 medium (GIBCO, Grand island, N.Y., USA) supplemented with 10% fetal calf serum, 2 mM glutamine (HyClone, South Logan, Utah, USA), 1% penicillin-streptomycin mix (Cellgro, Manassan, Va., USA). Cells were seeded at a density of 1×10^6 cells/mL and treated with different concentrations of the invention compounds. Cells were incubated at 37° C. in a humidified atmosphere of 5% CO2 in air for three hours with 5 mM DEM. Cell viability was determined by staining cells with 0.4% trypan blue using a hemacytometer. At least 500 cells were counted for each experimental group. At the time of assay, >95% of DEM-treated cells were trypan blue positive; whereas, in non-DEM treated control cell cultures >95% cells were viable. Cell viability was expressed as the percentage of control. Data are expressed as means±S.E.M (n=3).

[4] = test system: cytochrome c; test: Cytochrome c reduction assay; assay type: biochemical; conditions: 100 μM compound, 10 μM cytochrome c, absorbance 550 nm
Procedure: The rate of cytochrome c (10 μM) reduction was measured by monitoring the change in absorbance at 550 nm. Briefly the reaction was initiated by addition of 100 μM of the invention compounds to a mixture containing 50 mM phosphate buffer, 0.1 mM EDTA, pH 7.8, and 10 μM cytochrome c (Sigma, St. Louis, Mo. USA). For cytochrome c reduction by superoxide, xanthine oxidase (0.01 IU/mL) (Sigma, St. Louis, Mo. USA) was used in presence of xanthine (50 μM).

[5] = test system: CEM leukemia cells; test: Mitochondrial membrane potential (Δψm) assay, TMRM, FACS; assay type: cell-based, human; conditions: pretreatment 0.5, 1 or 2.5 μM overnight, DEM
Procedure: Measurement of Mitochondrial Membrane Potential (Δψm)(FACS). For the determination of Δψm, CEM leukemia cells were pre-treated with or without the test compounds. The cells were treated with 5 mM DEM for 120 minutes, collected by centrifugation at 300×g for 3 minutes and then washed twice with phosphate buffered saline. The cells were re-suspended in HSSB buffer and incubated at 37° C. in the dark for 15 minutes with 250 nM TMRM (a cationic dye which accumulates within mitochondria in accordance with the Δψm Nernst potential). Cells were collected by centrifugation at 300×g for 3 minutes and then washed twice with phosphate buffered saline. The samples were analyzed immediately by flow cytometry using 488 nm excitation laser and the FL2-H channel. The results obtained were verified in three independent experiments. The protonophore FCCP (30 μM) was used to dissipate the chemiosmotic proton gradient (ΔμH^+) and served as a control for loss of Δψm. In each analysis, 10,000 events were recorded.

[6] = James et al. (2005); cited from earlier work

SMILES | quenching of lipid peroxidation (retention of C11-BODIPY581/591 fluorescence) [1] | protection against ROS production (DCF fluorescence) ([2]; compound 1 μM) | protection against ROS production (DCF fluorescence) ([2]; compound 5 μM) | suppression of ROS production (DCF fluorescence) ([2]; pretreatment 0.5, 1 or 5 μM, DEM) | EC50 ([3]; Homo sapiens, CCRF-CEM, CEM cells, pre-treatment 2 h, diethylmaleate 3 h, trypan blue exclusion, read-out: EC50 (effective concentration that prevents 50% of cell death)) [nM] | maintaining cell viability (trypan blue exclusion) ([3]; overnight incubation, then 5 mM DEM, 3 h) | reduction of cytochrome c [4] | maintaining mitochondrial membrane potential Δψm [5] | calculated octanol-water partition coefficient [6]
Cc1cc(N(C)C)nc(CCCCCCCCCCO)c1O [Compound B, 2-N,N-dimethylamino-5-hydroxy-4-methyl-6-(10-hydroxydecyl)-pyridine] | about as effective as C | less effective at this concentration | significantly more effective in blocking diethylmaleate-induced ROS production compared to idebenone or its reduced form (Idebenol); also recorded: protected the cells | more effective than idebenone at all tested concentrations; also recorded: more effective than idebenone in suppressing ROS in a dose-dependent fashion | 300 ± 22 | quite effective in maintaining cell viability following DEM treatment; also recorded: superior to idebenone in maintaining the viability of DEM-treated cells | clearly reduce cytochrome c | clearly more effective in maintaining mitochondrial membrane potential; also recorded: very favorable properties | 
COC1=C(OC)C(=O)C(C/C=C(\C)CC/C=C(\C)CC/C=C(\C)CC/C=C(\C)CC/C=C(\C)CC/C=C(\C)CC/C=C(\C)CC/C=C(\C)CC/C=C(\C)CCC=C(C)C)=C(C)C1=O [coenzyme Q10] |  |  |  |  |  |  |  |  | > 10^20
